Assay results reported in ChEMBL document CHEMBL4811216, “Chemotherapy for human schistosomiasis: how far have we come? What's new? Where do we go from here?” (RSC Med Chem, 2020).

Key:
Schistosoma mansoni [1] = assay: Antischistosomal activity against Schistosoma mansoni Liberian assessed as reduction in worm motor activity incubated for 72 hrs measured every 24 hrs by microscopic method relative to control; format: functional, organism-based
Schistosoma mansoni [2] = assay: Antischistosomal activity against Schistosoma mansoni Liberian assessed as worm death at 20 uM incubated for 72 hrs measured every 24 hrs by microscopic method relative to control; format: functional
Schistosoma mansoni [3] = assay: Antischistosomal activity against Schistosoma mansoni Liberian assessed as reduction in egg production incubated for 72 hrs measured every 24 hrs; format: functional, organism-based
Schistosoma mansoni [4] = assay: Antischistosomal activity against Schistosoma mansoni LE assessed as worm mortality at 200 uM measured after 24 hrs relative to control; format: functional
Schistosoma mansoni [5] = assay: Antischistosomal activity against Schistosoma mansoni LE assessed as reduction in worm motor activity at 100 uM measured after 72 hrs relative to control; format: functional; design: scale not given: the % may be the effect or the level left
Schistosoma mansoni [6] = assay: Antischistosomal activity against Schistosoma mansoni Egyptian assessed as worm death at 50 to 200 ug/ml incubated upto 72 hrs by stereomicroscopy; format: functional; conditions: dose 50-200 µg/ml; time hrs <=72; at 50 to 200 µg/mL
Schistosoma mansoni [7] = assay: Antischistosomal activity against Schistosoma mansoni Egyptian assessed as tegument damage at 50 to 200 ug/ml incubated upto 72 hrs by inverted microscopy; format: functional; conditions: dose 50-200 µg/ml; time hrs <=72; at 50 to 200 µg/mL
Schistosoma mansoni [8] = assay: Antischistosomal activity against Schistosoma mansoni Egyptian assessed as reduction in egg production at 50 to 200 ug/ml incubated upto 72 hrs by microscopic method relative to control; format: functional; design: scale not given: the % may be the effect or the level left; conditions: dose 50-200 µg/ml; time hrs <=72; at 50 to 200 µg/mL
Schistosoma mansoni [9] = assay: Antischistosomal activity against Schistosoma mansoni Egyptian assessed as reduction in motor activity at 50 to 200 ug/ml incubated upto 72 hrs by stereomicroscopy; format: functional; design: scale not given: the % may be the effect or the level left; conditions: dose 50-200 µg/ml; time hrs <=72; at 50 to 200 µg/mL
Schistosoma mansoni [10] = assay: Antischistosomal activity against Schistosoma mansoni infected in MF1 swiss albino mouse assessed as worm burden reduction at 200 mg/kg, po measured after 2 weeks by stereomicroscopy relative to control; format: functional; design: scale not given: the % may be the effect or the level left
Schistosoma mansoni [11] = assay: Antischistosomal activity against Schistosoma mansoni BH assessed as reduction in motor activity at 12.5 to 100 uM measured up to 72 hrs by light microscopic method relative to control; format: functional; design: scale not given: the % may be the effect or the level left; conditions: dose 12.5-100 µM, time hrs <=72
Schistosoma mansoni [12] = assay: Antischistosomal activity against Schistosoma mansoni BH assessed as worm death at 12.5 to 100 uM measured up to 72 hrs by light microscopic method relative to control; format: functional; conditions: dose 12.5-100 µM, time hrs <=72
Schistosoma mansoni [13] = assay: Antischistosomal activity against Schistosoma mansoni BH assessed as tegument damage at 12.5 to 100 uM measured up to 72 hrs by confocal laser scanning microscopic method relative to control; format: functional; conditions: dose 12.5-100 µM, time hrs <=72
Schistosoma mansoni [14] = assay: Antischistosomal activity against Schistosoma mansoni BH infected in Balb/C mouse assessed as reduction in worm burden at 100 mg/kg, po measured after 2 weeks by Kato-Katz quantitative method; format: functional; design: Activity: scale not given: the % may be the effect or the level left
Schistosoma mansoni [15] = assay: Antischistosomal activity against juvenile Schistosoma mansoni infected in ICR mouse assessed as reduction in worm burden at 8 mg/kg, ip administered for 5 consecutive days; format: functional; design: scale not given: the % may be the effect or the level left
Schistosoma japonicum [16] = assay: Antischistosomal activity against adult Schistosoma japonicum infected in ICR mouse assessed as reduction in worm burden at 8 mg/kg, ip administered for 5 consecutive days; format: functional; design: scale not given: the % may be the effect or the level left
Schistosoma japonicum [17] = assay: Antischistosomal activity against juvenile Schistosoma japonicum infected in ICR mouse assessed as reduction in worm burden at 8 mg/kg, ip administered for 5 consecutive days; format: functional; design: scale not given: the % may be the effect or the level left
Schistosoma mansoni [18] = assay: Antischistosomal activity against adult Schistosoma mansoni infected in ICR mouse assessed as reduction in worm burden at 8 mg/kg, ip administered for 5 consecutive days; format: functional; design: scale not given: the % may be the effect or the level left
Schistosoma mansoni [19] = assay: Antischistosomal activity against larva Schistosoma mansoni infected in ICR mouse assessed as reduction in worm burden at 8 mg/kg, ip administered for 5 consecutive days; format: functional; design: scale not given: the % may be the effect or the level left
Schistosoma japonicum [20] = assay: Antischistosomal activity against larva Schistosoma japonicum infected in ICR mouse assessed as reduction in worm burden at 8 mg/kg, ip administered for 5 consecutive days; format: functional; design: scale not given: the % may be the effect or the level left

C[C@@H](N)CCCCCC/C=C\CCCCCCCCN
EC50 (Schistosoma mansoni [1]): 8.8 µM | mortality at 20 µM (Schistosoma mansoni [2]): 100% | EC50 (Schistosoma mansoni [3]): 3.6 µM

COC(=O)/C=C/c1ccc2c(c1)[C@@H](C(=O)OC)[C@H](c1ccc(OC(C)=O)cc1)O2
Activity (Schistosoma mansoni [4]): 100% | Activity (Schistosoma mansoni [5]): 100%

O=S(=O)(c1ccc(O)c2ncccc12)C1C(c2ccccc2)=Nc2ccncc2N=C1c1ccccc1 (stereo not given)
mortality (Schistosoma mansoni [6]): 100% | Activity (Schistosoma mansoni [7]): 20% | Activity (Schistosoma mansoni [8]): 54% | Activity (Schistosoma mansoni [9]): 100% | Activity (Schistosoma mansoni [10]): 81.2%

C=C1C(=O)O[C@@H]2C3O[C@]3(C)CC/C=C(\C)CC[C@@H]12 (stereo not given in full)
Activity (Schistosoma mansoni [11]): 100% | mortality (Schistosoma mansoni [12]): 100% | Activity (Schistosoma mansoni [13]): 100% | Activity (Schistosoma mansoni [14]): 64.1%

C[C@@H]1O[C@@H](O[C@@H]2C[C@@H](O[C@@H]3O[C@H](CO)[C@@H](O)[C@H](O)[C@H]3O)CO[C@H]2O[C@H]2CC[C@]3(C)[C@H]4CC=C5[C@@H]6CC(C)(C)CC[C@]6(C(=O)O)CC[C@@]5(C)[C@]4(C)CC[C@H]3C2(C)C)[C@H](O)[C@H](O)[C@H]1O
Activity (Schistosoma mansoni [15]): 68.3% | Activity (Schistosoma japonicum [16]): 53.2% | Activity (Schistosoma japonicum [17]): 59.9% | Activity (Schistosoma mansoni [18]): 70.6% | Activity (Schistosoma mansoni [19]): 88.6% | Activity (Schistosoma japonicum [20]): 90%
